Target: T1, human RXFP1 (Homo sapiens, UniProt Q9HBX9)
T1 construct: expressed in transfected cells
T1 sequence (Q9HBX9 1-757): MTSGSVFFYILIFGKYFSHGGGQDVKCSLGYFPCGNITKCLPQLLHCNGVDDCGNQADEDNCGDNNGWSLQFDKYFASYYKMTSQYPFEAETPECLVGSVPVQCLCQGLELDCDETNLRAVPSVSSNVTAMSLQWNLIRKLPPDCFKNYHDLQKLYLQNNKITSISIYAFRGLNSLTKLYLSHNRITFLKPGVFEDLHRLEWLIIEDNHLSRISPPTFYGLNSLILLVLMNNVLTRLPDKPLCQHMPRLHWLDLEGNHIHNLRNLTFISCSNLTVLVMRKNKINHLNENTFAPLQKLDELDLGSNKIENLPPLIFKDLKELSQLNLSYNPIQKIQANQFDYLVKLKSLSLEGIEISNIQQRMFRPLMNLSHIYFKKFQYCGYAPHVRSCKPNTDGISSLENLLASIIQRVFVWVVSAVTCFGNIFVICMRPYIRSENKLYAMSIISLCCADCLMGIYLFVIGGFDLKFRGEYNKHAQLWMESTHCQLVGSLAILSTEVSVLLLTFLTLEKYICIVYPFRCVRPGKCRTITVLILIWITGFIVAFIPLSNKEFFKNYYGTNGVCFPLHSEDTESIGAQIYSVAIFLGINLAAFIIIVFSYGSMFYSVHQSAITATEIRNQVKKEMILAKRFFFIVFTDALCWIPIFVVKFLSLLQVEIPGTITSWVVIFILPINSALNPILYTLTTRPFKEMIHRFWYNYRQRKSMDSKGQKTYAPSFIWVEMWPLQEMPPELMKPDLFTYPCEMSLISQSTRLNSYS
Assay: RXFP1 cyclic adenosine monophosphate (cAMP) assay, hRXFP1 HEK293
Type: cell-based
Conditions: HEK293 cells stably expressing human RXFP1; 30 min at room temperature; HTRF cAMP
Outline: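 HEK293 cells stably expressing human RXFP1 were exposed to compounds (0.010 nM–50 μM, 2% DMSO) for 30 min at room temperature in HBSS/HEPES buffer with 0.5 mM IBMX. Intracellular cAMP was measured by HTRF against a cAMP standard curve; EC50 from 4-parameter logistic fit.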

Compound | EC50 [nM]
COc1ccc(-c2cnc3n2CCN(CCO)C3)cc1C(=O)Nc1cc2c(cc1C(=O)Nc1ccc(F)c(C(F)(F)F)c1)OC(F)(F)O2 [Example 80, 2,2-difluoro-N-(4-fluoro-3-(trifluoromethyl)phenyl)-6-(5-(7-(2-hydroxyethyl)-5,6,7,8-tetrahydroimidazo[1,2-a]pyrazin-3-yl)-2-methoxybenzamido) benzo[d][1,3]dioxole-5-carboxamide] | 260
COc1ccc(-c2cnc3n2CCN(C2COC2)C3)cc1C(=O)Nc1cc2c(cc1C(=O)Nc1ccc(F)c(C(F)(F)F)c1)OC(F)(F)O2 [Example 81, 2,2-difluoro-N-(4-fluoro-3-(trifluoromethyl)phenyl)-6-(2-methoxy-5-(7-(oxetan-3-yl)-5,6,7,8-tetrahydroimidazo[1,2-a]pyrazin-3-yl)benzamido)benzo[d] [1,3]dioxole-5-carboxamide] | 282
COCC1CC(c2ccc(OC)c(C(=O)Nc3cc4c(cc3C(=O)Nc3ccc(F)c(C(F)(F)F)c3)OC(F)(F)O4)c2)=NO1 (stereo not drawn) [Example 83, 2,2-difluoro-N-(4-fluoro-3-(trifluoromethyl)phenyl)-6-(2-methoxy-5-(5-(methoxymethyl)-4,5-dihydroisoxazol-3-yl)benzamido)benzo[d] [1,3]dioxole-5-carboxamide] | 399
COc1ccc(-c2noc(C(C)(C)O)n2)cc1C(=O)Nc1cc2c(cc1C(=O)Nc1ccc(F)c(C(F)(F)F)c1)OC(F)(F)O2 [Example 84, 2,2-difluoro-N-(4-fluoro-3-(trifluoromethyl)phenyl)-6-(5-(5-(2-hydroxypropan-2-yl)-1,2,4-oxadiazol-3-yl)-2-methoxybenzamido) benzo[d][1,3]dioxole-5-carboxamide] | 485
COc1ccc(CN2CC3(C2)CS(=O)(=O)C3)cc1C(=O)Nc1cc2c(cc1C(=O)Nc1ccc(F)c(C(F)(F)F)c1)OC(F)(F)O2 [Example 88, 6-(5-((2,2-dioxido-2-thia-6-azaspiro[3.3]heptan-6-yl)methyl)-2-methoxybenzamido)-2,2-difluoro-N-(4-fluoro-3-(trifluoromethyl)phenyl) benzo[d][1,3]dioxole-5-carboxamide] | 274
COc1ccc(C2CCCN(C3COC3)CC2)cc1C(=O)Nc1cc2c(cc1C(=O)Nc1ccc(F)c(C(F)(F)F)c1)OC(F)(F)O2 (stereo not drawn) [Example 95, 2,2-difluoro-N-(4-fluoro-3-(trifluoromethyl)phenyl)-6-(2-methoxy-5-(1-(oxetan-3-yl)azepan-4-yl)benzamido)benzo[d] [1,3]dioxole-5-carboxamide] | 862
COc1ccc(C2CC3(C2)CN(C(=O)C(C)(C)O)C3)cc1C(=O)Nc1cc2c(cc1C(=O)Nc1ccc(F)c(C(F)(F)F)c1)OC(F)(F)O2 [Example 97, 2,2-difluoro-N-(4-fluoro-3-(trifluoromethyl)phenyl)-6-(5-(2-(2-hydroxy-2-methylpropanoyl)-2-azaspiro[3.3]heptan-6-yl)-2-methoxybenzamido) benzo[d][1,3]dioxole-5-carboxamide] | 666
COc1ccc(C2=NOC3CC(CO)CC23)cc1C(=O)Nc1cc2c(cc1C(=O)Nc1ccc(F)c(C(F)(F)F)c1)OC(F)(F)O2 (stereo not drawn) [Example 98] | 1.3

Continued, values first:

EC50 [nM] | Compound
144 | COc1ccc(-c2cnc3n2CCN(CC(N)=O)C3)cc1C(=O)Nc1cc2c(cc1C(=O)Nc1ccc(F)c(C(F)(F)F)c1)OC(F)(F)O2 [Example 82, 6-(5-(7-(2-amino-2-oxoethyl)-5,6,7,8-tetrahydroimidazo[1,2-a]pyrazin-3-yl)-2-methoxybenzamido)-2,2-difluoro-N-(4-fluoro-3-(trifluoromethyl)phenyl) benzo[d][1,3]dioxole-5-carboxamide]
161 | COc1ccc(-c2nc(N3CCOCC3)no2)cc1C(=O)Nc1cc2c(cc1C(=O)Nc1ccc(F)c(C(F)(F)F)c1)OC(F)(F)O2 [Example 87, 2,2-difluoro-N-(4-fluoro-3-(trifluoromethyl)phenyl)-6-(2-methoxy-5-(3-morpholino-1,2,4-oxadiazol-5-yl)benzamido)benzo[d] [1,3]dioxole-5-carboxamide]
2640 | COc1ccc(C2CC3(CNC3)C2)cc1C(=O)Nc1cc2c(cc1C(=O)Nc1ccc(F)c(C(F)(F)F)c1)OC(F)(F)O2 [Example 92, 2,2-difluoro-N-(4-fluoro-3-(trifluoromethyl)phenyl)-6-(2-methoxy-5-(2-azaspiro[3.3]heptan-6-yl)benzamido)benzo[d] [1,3]dioxole-5-carboxamide]
1090 | COc1ccc(-c2ccc3c(c2)CCNC3)cc1C(=O)Nc1cc2c(cc1C(=O)Nc1ccc(F)c(C(F)(F)F)c1)OC(F)(F)O2 [Example 93, 2,2-difluoro-N-(4-fluoro-3-(trifluoromethyl)phenyl)-6-(2-methoxy-5-(1,2,3,4-tetrahydroisoquinolin-6-yl)benzamido)benzo[d] [1,3]dioxole-5-carboxamide]
339 | COc1ccc(C2CCCN(CC(N)=O)CC2)cc1C(=O)Nc1cc2c(cc1C(=O)Nc1ccc(F)c(C(F)(F)F)c1)OC(F)(F)O2 (stereo not drawn) [Example 96, 6-(5-(1-(2-amino-2-oxoethyl)azepan-4-yl)-2-methoxybenzamido)-2,2-difluoro-N-(4-fluoro-3-(trifluoromethyl)phenyl) benzo[d][1,3]dioxole-5-carboxamide]
3.9 | COc1ccc(C2=NOC3CC(CO)CC23)cc1C(=O)Nc1cc2c(cc1C(=O)Nc1ccc(F)c(C(F)(F)F)c1)OC(F)(F)O2 (stereo not drawn) [Example 99, 2,2-difluoro-N-(4-fluoro-3-(trifluoromethyl)phenyl)-6-(5-(5-(hydroxymethyl)-3a,5,6,6a-tetrahydro-4H-cyclopenta[d]isoxazol-3-yl)-2-methoxybenzamido) benzo[d][1,3]dioxole-5-carboxamide]
8.4 | CC1(C)Cc2cc(C3=NOC4CC(CO)CC34)cc(C(=O)Nc3cc4c(cc3C(=O)Nc3ccc(F)c(C(F)(F)F)c3)OC(F)(F)O4)c2O1 (stereo not drawn) [Example 100, 2,2-difluoro-N-(4-fluoro-3-(trifluoromethyl)phenyl)-6-(5-(5-(hydroxymethyl)-3a,5,6,6a-tetrahydro-4H-cyclopentafdlisoxazol-3-yl)-2,2-dimethyl-2,3-dihydrobenzofuran-7-carboxamido)benzo[d] [1,3]dioxole-5-carboxamide]
9.8 | CC(C)(C)NS(=O)(=O)c1ccc(F)c(-c2cc3c(c(C(=O)Nc4cc5c(cc4C(=O)Nc4ccc(F)c(C(F)(F)F)c4)OC(F)(F)O5)c2)OC(C)(C)C3)c1 [Example 101, 6-(5-(5-(N-(tert-butyl)sulfamoyl)-2-fluorophenyl)-2,2-dimethyl-2,3-dihydrobenzofuran-7-carboxamido)-2,2-difluoro-N-(4-fluoro-3-(trifluoromethyl)phenyl) benzo[d][1,3]dioxole-5-carboxamide]
10.6 | COc1cc(F)c(C2=NOC3CC(CO)CC23)cc1C(=O)Nc1cc2c(cc1C(=O)Nc1ccc(F)c(C(F)(F)F)c1)OC(F)(F)O2 (stereo not drawn) [Example 102, 2,2-difluoro-N-(4-fluoro-3-(trifluoromethyl)phenyl)-6-(4-fluoro-5-(5-(hydroxymethyl)-3a,5,6,6a-tetrahydro-4H-cyclopenta[d]isoxazol-3-yl)-2-methoxybenzamido) benzo[d][1,3]dioxole-5-carboxamide]

System: not given
Assay: not given
Conditions: intravenous (IV) formulation; cited from earlier work

Compound | first-phase pharmacokinetic half-life [min]
Serelaxin | 5.4
